According to US10231958B2, “Methods and compositions for enhancing chemotherapy” (THE BOARD OF REGENTS OF THE UNIVERSITY OF TEXAS SYSTEM, priority 2015, dated 2019):

Assays:
[1] = test system: MDA-MB231 cells; assay: Extracellular matrix invasion assay (Boyden chamber); type: cell-based, human; details: CM from sorafenib or sorafenib plus MMS/4-HC vs CM from MMS or 4-HC alone
Experimental: Quantification of MMP1 and MMP3 content in culture medium was assessed using RayBio-MMP3 and RayBio-MMP1 Elisa Kit (RayBiotech, Inc); IL8 was analyzed by Human IL-8 Elisa kit (Pierce Biotechnology). The levels of prostaglandin E2 (PGE2) were determined using the Prostaglandin E2 EIA Kit Monoclonal (Cayman Chemical Company). Culture media were diluted to fit within the standard curves. For conditioned media (CM) preparation for invasion and in vitro angiogenesis experiments, 12-well plated cells were treated with MMS (or MMS plus inhibitors) for 8 h in the presence of 10% FBS, twice washed with HBSS, and incubated with 700 μL drug/serum-free fresh medium for additional 12 h. Thereafter, the conditioned fresh medium was collected and directly used for migration and invasion experiments in order to reduce freezing associated loss of activity.
The invasion potential of breast cancer cells was estimated using the QCM™ 24-Well Cell Invasion Assay Fluorimetric (Millipore). Serum starved cells were trypsinized, trypsin-inhibited, centrifuged, resuspended to 5000 cells/μL, and 50 μL of this suspension (250,000 cells) was seeded on 8 μm pore size inserts coated with extracellular matrix in serum-free conditions. Afterwards, 200 μL conditioned (CM) or fresh medium without serum was added to top chambers. The bottom chamber consisted of 500 μL of DMEM supplemented with 10% FBS as chemoattractant. Cells were allowed to migrate for 24 h at 37° C. under 5% CO2. Invaded cells were detached from the bottom side of the insert, lysed and incubated with CyQuant GR fluorescent Dye for 15 min. Fluorescence was read at Ex/Em=480/520 nm. Percentage of invading cells was compared to cell number standard curves.

[2] = test system: protein sulfhydryl (protein-SH) groups; assay: Protein sulfhydryl groups (dibromobimane assay); type: cell-based; details: 12 h treatment
Experimental: Protein reduced thiol groups (Protein-SH) were measured by dibromobimane assays with minor modifications (PMID:20463849). The 6-well plated cells (500,000 cells) were scraped in 0.6 mL PBS and 200 μL Perchloric acid (6 N) was added to precipitate proteins. The samples were incubated for 5 min in ice, centrifuged (14,000×g) Supernatants containing small peptides and glutathione were discarded and pellets were resuspended in 100 μL NaOH 0.1N, neutralized with 100 μL ice cold Perchloric acid (0.1 N), and 0.1 N PBS was added to keep pH constant. A stock solution of 4 mM dibromobimane in DMSO was added to a final concentration 40 μM, and incubated for 30 30 min at 37° C. Dibromobimane-protein fluorescence was measured at Ex=393 and, Em=477 nm.

Structure (SMILES) | invasion with CM from treated cells [1] | protein sulfhydryl residues [2]
CNC(=O)c1cc(Oc2ccc(NC(=O)Nc3ccc(Cl)c(C(F)(F)F)c3)cc2)ccn1 [sorafenib, 4-[4-[[4-chloro-3-(trifluoromethyl)phenyl]carbamoylamino]phenoxy]-N-methyl-pyridine-2-carboxamide] | unable to invade Boyden Chambers | –
COS(C)(=O)=O [MMS, methyl-methanesulfonate] | – | deplete protein sulfhydryl residues
